Key:
Type in all cases: in vivo
[1] = tested on: boll weevil (Anthonomus grandis); experiment: Boll weevil (Anthonomus grandis), microtiter plate insect diet test; details: 120 h, egg and larval mortality after 5 days, read-out: mortality in comparison with untreated controls
Method: For evaluating control of boll weevil (Anthonomus grandis) the test unit consisted of 96-well-microtiter plates containing an insect diet and 5-10 A. grandis eggs. The compounds were formulated using a solution containing 75% v/v water and 25% v/v DMSO. Different concentrations of formulated compounds were sprayed onto the insect diet at 5 μl, using a custom-built micro atomizer, at two replications.
After application, microtiter plates were incubated at about 25±1° C. and about 75±5% relative humidity for 5 days. Egg and larval mortality was then visually assessed.

[2] = tested on: green peach aphid (Myzus persicae); experiment: Green peach aphid (Myzus persicae), systemic artificial diet/membrane test; details: 72 h, aphid mortality after 3 days, read-out: mortality in comparison with untreated controls
Source text: For evaluating control of green peach aphid (Myzus persicae) through systemic means the test unit consisted of 96-well-microtiter plates containing liquid artificial diet under an artificial membrane.
The compounds were formulated using a solution containing 75% v/v water and 25% v/v DMSO. Different concentrations of formulated compounds were pipetted into the aphid diet, using a custom-built pipette, at two replications.
After application, 5-8 adult aphids were placed on the artificial membrane inside the microtiter plate wells. The aphids were then allowed to suck on the treated aphid diet and incubated at about 23 ±1° C. and about 50 ±5% relative humidity for 3 days. Aphid mortality and fecundity was then visually assessed.

[3] = tested on: tobacco budworm (Heliothis virescens); experiment: Tobacco budworm (Heliothis virescens), microtiter plate insect diet test; details: 120 h, egg and larval mortality after 5 days, read-out: mortality in comparison with untreated controls
Method: For evaluating control of tobacco budworm (Heliothis virescens) the test unit consisted of 96-well-microtiter plates containing an insect diet and 15-25 H. virescens eggs. The compounds were formulated using a solution containing 75% v/v water and 25% v/v DMSO. Different concentrations of formulated compounds were sprayed onto the insect diet at 10 μl, using a custom-built micro atomizer, at two replications.
After application, microtiter plates were incubated at about 28±1° C. and about 80±5% relative humidity for 5 days. Egg and larval mortality was then visually assessed.

[4] = tested on: orchid thrips (Dichromothrips corbetti); experiment: Orchid thrips (Dichromothrips corbetti), floral-immersion technique; details: 72 hours after treatment, adult thrips, read-out: mortality in comparison with untreated controls
Method: Dichromothrips corbetti adults used for bioassay were obtained from a colony maintained continuously under laboratory conditions. For testing purposes, the test compound was diluted in a 1:1 mixture of acetone:water (vol:vol), plus Kinetic at a rate of 0.01% v/v.
Thrips potency of each compound was evaluated by using a floral-immersion technique. Each orchid petal was dipped into treatment solution and allowed to dry in Petri dishes. Treated petals were placed into individual re-sealable plastic along with about 20 adult thrips. All test arenas were held under dark condition and a temperature of about 28° C. for duration of the assay. The percent mortality was recorded 72 hours after treatment.

[5] = tested on: diamond back moth (Plutella xylostella); experiment: Diamond back moth (Plutella xylostella), cabbage leaf disc dip test; details: foliar, 72 hours after treatment, 3rd instar larvae, read-out: mortality in comparison with untreated controls
Method: The active compound was dissolved at the desired concentration in a mixture of 1:1 (vol:vol) distilled water:acetone. Surfactant (Kinetic) was added at a rate of 0.01% (vol/vol). The test solution was prepared at the day of use. Cabbage leaf discs (60 mm in diameter) were dipped in test solution and air-dried. Treated leaves were placed in petri dishes lined with moistened filter paper and inoculated with ten 3rd instar larvae. Mortality was recorded 72 hours after treatment. Feeding damages were also recorded using a scale of 0-100%.

[6] = tested on: yellow fever mosquito (Aedes aegypti); experiment: whole plant or invertebrate; details: 48 h, larval mortality after 2 days, read-out: mortality in comparison with untreated controls
Method: For evaluating control of yellow fever mosquito (Aedes aegypti) the test unit consisted of 96-well-microtiter plates containing 200 μl of tap water per well and 5-15 freshly hatched A. aegypti larvae.
The active compounds were formulated using a solution containing 75% (v/v) water and 25% (v/v) DMSO. Different concentrations of formulated compounds or mixtures were sprayed onto the insect diet at 2.5 μl, using a custom-built micro atomizer, at two replications.
After application, microtiter plates were incubated at 28±1° C., 80±5% RH for 2 days. Larval mortality was then visually assessed.

[7] = tested on: southern armyworm (Spodoptera eridania), 2nd instar larvae; experiment: Southern armyworm (Spodoptera eridania), 2nd instar larvae, sprayed lima bean plants; details: 96 h, 4 days after treatment, read-out: mortality in comparison with untreated controls
Source text: The active compounds were formulated by a Tecan liquid handler in 100% cyclohexanone as a 10′000 ppm solution supplied in tubes. The 10′000 ppm solution was serially diluted in 100% cyclohexanone to make interim solutions. These served as stock solutions for which final dilutions were made by the Tecan in 50% acetone:50% water (v/v) into 10 or 20m1 glass vials. A nonionic surfactant (Kinetic®) was included in the solution at a volume of 0.01% (v/v). The vials were then inserted into an automated electrostatic sprayer equipped with an atomizing nozzle for application to plants/insects. Lima bean plants (variety Sieva) were grown 2 plants to a pot and selected for treatment at the 1st true leaf stage. Test solutions were sprayed onto the foliage by an automated electrostatic plant sprayer equipped with an atomizing spray nozzle. The plants were dried in the sprayer fume hood and then removed from the sprayer. Each pot was placed into perforated plastic bags with a zip closure. Ten to 11 armyworm larvae were placed into the bag and the bags zipped closed. Test plants were maintained in a growth room at about 25° C. and about 20-40% relative humidity for 4 days, avoiding direct exposure to fluorescent light (14:10 light:dark photo-period) to prevent trapping of heat inside the bags. Mortality and reduced feeding were assessed 4 days after treatment, compared to untreated control plants.

[8] = tested on: rice green leafhopper (Nephotettix virescens); experiment: Rice green leafhopper (Nephotettix virescens), sprayed rice seedlings; details: after 72 hours, adults, read-out: mortality in comparison with untreated controls
Method: Four to five-week old rice seedlings with cut upper leaf portion were cleaned and washed 24 hours before spraying. The active compounds were formulated in 1:1 acetone:water (vol:vol), and 0.01% vol/vol surfactant (Kinetic) was added. Potted rice seedlings were sprayed with 5-6 ml test solution, air dried, covered with Mylar cages and inoculated with 10 adults. Treated rice plants were kept at about 28-29° C. and relative humidity of about 50-60%. Percent mortality was recorded after 72 hours.

CC(NC1=NS(=O)(=O)c2c(Cl)cc(Cl)cc21)c1ncnn1-c1ncccn1 (stereo not drawn) [I-9, 5,7-dichloro-1,1-dioxo-N-[1-(2-pyrimidin-2-yl-1,2,4-triazol-3-yl)ethyl]-1,2-benzothiazol-3-amine]
≥ 50%: mortality at 2500 ppm [1] | mortality at 2500 ppm [2]

CCC(Nc1noc2c(C(F)(F)F)cc(C(F)(F)F)cc12)c1ncnn1-c1ncccn1 (stereo not drawn) [I-28, N-[1-(2-pyrimidin-2-yl-1,2,4-triazol-3-yl)propyl]-5,7-bis(trifluoromethyl)-1,2-benzoxazol-3-amine]
≥ 50%: mortality at 2500 ppm [1] | mortality at 2500 ppm [3] | mortality at 300 ppm [4] | mortality at 2500 ppm [2] | mortality at 300 ppm [5]

CC(Nc1nn(C)c2ccc(C(F)(F)F)cc12)c1ncnn1-c1ncccn1 (stereo not drawn) [I-4, 1-methyl-N-[1-(2-pyrimidin-2-yl-1,2,4-triazol-3-yl)ethyl]-5-(trifluoromethyl)indazol-3-amine]
≥ 50%: mortality at 2500 ppm [1] | mortality at 2500 ppm [3] | mortality at 2500 ppm [6]

CC(Nc1nsc2c(Cl)cc(Cl)cc12)c1ncnn1-c1ncccn1 (stereo not drawn) [I-5, 5,7-dichloro-N-[1-(2-pyrimidin-2-yl-1,2,4-triazol-3-yl)ethyl]-1,2-benzothiazol-3-amine]
≥ 50%: mortality at 2500 ppm [1] | mortality at 300 ppm [7] | mortality at 2500 ppm [3] | mortality at 2500 ppm [2] | mortality at 2500 ppm [6]

CC(Nc1noc2ncc(C(F)(F)F)cc12)c1ncnn1-c1ncccn1 (stereo not drawn) [I-3, N-[1-(2-pyrimidin-2-yl-1,2,4-triazol-3-yl)ethyl]-5-(trifluoromethyl)isoxazolo[5,4-b]pyridin-3-amine]
≥ 50%: mortality at 2500 ppm [1] | mortality at 2500 ppm [2]

CC(Nc1noc2c(C(F)(F)F)cc(C(F)(F)F)cc12)c1ncnn1-c1ncccn1 (stereo not drawn) [I-1, N-[1-(2-pyrimidin-2-yl-1,2,4-triazol-3-yl)ethyl]-5,7-bis(trifluoromethyl)-1,2-benzoxazol-3-amine]
≥ 50%: mortality at 2500 ppm [1] | mortality at 2500 ppm [3] | mortality at 2500 ppm [2] | mortality at 2500 ppm [6]

CC(Nc1n[s+]([O-])c2c(Cl)cc(Cl)cc12)c1ncnn1-c1ncccn1 (stereo not drawn) [I-8, 5,7-dichloro-1-oxo-N-[1-(2-pyrimidin-2-yl-1,2,4-triazol-3-yl)ethyl]-1,2-benzothiazol-3-amine]
≥ 50%: mortality at 2500 ppm [1] | mortality at 300 ppm [8] | mortality at 300 ppm [4] | mortality at 2500 ppm [2]

CC(c1ncnn1-c1ncccn1)N(CC1CC1)c1nnc2c(Cl)cc(C(F)(F)F)cn12 (stereo not drawn) [I-6, 8-chloro-N-(cyclopropylmethyl)-N-[1-(2-pyrimidin-2-yl-1,2,4-triazol-3-yl)ethyl]-6-(trifluoromethyl)-[1,2,4]triazolo[4,3-a]pyridin-3-amine]
≥ 50%: mortality at 2500 ppm [2]

CC(Nc1c(C(F)(F)F)c(C(F)(F)C(F)(F)F)nn1C)c1ncnn1-c1ncccn1 (stereo not drawn) [I-7, 2-methyl-5-(1,1,2,2,2-pentafluoroethyl)-N-[1-(2-pyrimidin-2-yl-1,2,4-triazol-3-yl)ethyl]-4-(trifluoromethyl)pyrazol-3-amine]
≥ 50%: mortality at 2500 ppm [3] | mortality at 300 ppm [4] | mortality at 300 ppm [5]

FC(F)(F)c1cc(C(F)(F)F)c2onc(NCc3ncnn3-c3ncccn3)c2c1 [I-2, N-[(2-pyrimidin-2-yl-1,2,4-triazol-3-yl)methyl]-5,7-bis(trifluoromethyl)-1,2-benzoxazol-3-amine]
≥ 50%: mortality at 2500 ppm [1] | mortality at 300 ppm [4] | mortality at 300 ppm [5] | mortality at 2500 ppm [6]

Reference: US20230180754A1, “HETEROCYCLIC COMPOUNDS FOR THE CONTROL OF INVERTEBRATE PESTS” (priority 2020, published 2023)
